# Entries after “also recorded” stand apart in the source; their conditions may differ.
# Columns and labels:
# Format in all cases: in vivo, mouse
# CTX mice [1] = experiment: Cholestanol and 7αC4 in plasma of treated CTX mice (HPLC-MS/MS)
# Text: A mouse strain with truncation of Cyp27a1 exon 8 was obtained from The Jackson Laboratory (Bar Harbor, Me.) (B6.129-Cyp27a1^tm1Et/J, Ref. 009106) (Rosen H, et al. J. Biol. Chem. 1998; 273:14805-14812). Mice homozygous for this mutation (referred hereinafter to as Cyp27a1^−/− or CTX mice) were maintained in a C57BL6/J background by crossing heterozygous individuals. The offspring was genotyped after weaning as indicated by the repository.
# Animals were group-housed, up to 6 animals per cage (male or female), provided with food and water ad libitum and maintained with a 12 h light-dark cycle. The average age for initiation of studies was 7 weeks. AAV vectors were administered intravenously by retro-orbital injection in a final volume of 150 μl saline solution. Chenodeoxycholic (CDCA) (Sigma-Aldrich, Ref: C9377-25G) was supplemented in standard chow at 0.1, 0.5 and 1 g CDCA/100 g of chow (0.1, 0.5 and 1.0% CDCA diets, respectively). Blood was collected by submandibular venous puncture using 1.3 ml EDTA tubes (Sarstedt, Nimbrecht, Germany) except for end-time points/terminal procedures, in which cardiac puncture was performed in anesthetized mice. Once animals were euthanized, liver samples were collected for histological and gene expression analyses.
# (§1) Blood was centrifuged at 10.000 g for 5 min at room temperature. Plasma was treated with 20 μM butylhydroxytoluene (Sigma) in a N2 atmosphere to protect from oxidation before storage at −80° C. in opaque tubes. Sterol extractions were performed using 100 μl of plasma for quantification of cholestanol and 7αC4 concentrations by HPLC-MS/MS as previously described (Chen W, Chiang J Y L. Gene. 2003; 313:71-82). Bile acid (BA) profiling in serum was carried out after acetonitrile precipitation/extraction (Leníček M, et al. J. Chromatogr. B Anal. Technol. Biomed. Life Sci. 2016; 1033-1034:317-320), using an adaptation (Nytofte N S, et al. J. Med. Genet. 2011; 48:219-225). of a previously described method for BA measurement by HPLC-MS/MS (Ye L, et al. J. Chromatogr. B Anal. Technol. Biomed. Life Sci. 2007; 860:10-17) on a 6420 Triple Quad LC/MS device (Agilent Technologies, Santa Clara, Calif.) (Monte M J, et al. J. Hepatol. 2002; 36:534-542). Alanine aminotransferase (ALT) was quantified in 40 μl plasma samples using a Cobas C311 automated chemistry analyser (Roche Diagnostics, Basel, Switzerland).
# This is the only CTX animal model available to date (Rosen et al. J. Biol. Chem. 273 (1998) 14805-14812).
# Blood was collected 15 days later for determination of cholestanol and 7aC4 in plasma by HPLC/mass spectrometry. […] Of note, neither elevation of liver transaminases nor any other sign of toxicity was detected in any of the treated animals.
# CTX mice [2] = experiment: Tolerability: transaminases (ALT), liver histology, body weight, signs of toxicity; conditions: diet 1% of chow weight
# Method: Blood was centrifuged at 10.000 g for 5 min at room temperature. Plasma was treated with 20 μM butylhydroxytoluene (Sigma) in a N2 atmosphere to protect from oxidation before storage at −80° C. in opaque tubes. […] Alanine aminotransferase (ALT) was quantified in 40 μl plasma samples using a Cobas C311 automated chemistry analyser (Roche Diagnostics, Basel, Switzerland).
# Cyp27a1 = experiment: Endogenous Cyp27a1 mRNA in liver (primers exons 1/2), qPCR; conditions: liver 2 weeks after vector or one month after initiation of CDCA diet
# Method: (§2) RNA was extracted from frozen liver samples using the Maxwell® 16 LEV simplyRNA Cells Kit (Promega) following manufacture's recommendations. Two μg of RNA, treated with DNase I, were retro-transcribed using M-MLV retro-transcriptase (Invitrogen™) and random primers (Life Technologies, Thermo). cDNA was amplified and relative gene expression was determined by quantitative polymerase chain reaction (qPCR) using iQ™ SYBR® Green Supermix reagent (Bio-Rad), in CFX96 Touch™ Real-Time PCR Detection System (Bio-Rad). Table 1 contains the sequence of primers specific for the transgene (CYP27A1) and the mouse genes Cyp7a1, Cyp3a11, Cyp27a1 (exons 1/2), Cyp27a1 (exons 8/9) and 36b4 (used as a housekeeping gene).
# (§3) ΔCt values using 36b4 mRNA levels as reference gene were corrected with the efficiency of amplification of each pair of primers and multiplied by 1.000 to facilitate graphical representation.
# (§4) To this aim, mRNA was extracted from liver samples collected 2 weeks after vector administration, or one month after initiation of the CDCA treatment. First, the inventors studied the impact of the treatments on the transcriptional control of the endogenous Cyp27a1 gene. Since CTX mice present truncation of the gene at exon 8 out of 9 (Rosen H, et al. J. Biol. Chem. 1998; 273:14805-14812), the inventors employed primers targeting exons 1/2 in order to detect the wild type or truncated transcripts.
# Cyp3a11 = conditions: 0.5% diet, one month
# Method: as §2, §3, §4
# Cyp7a1 = conditions: 0.5% diet (therapeutic dose), one month
# Method: as §2, §3, §4
# CTX mice [3] = experiment: Hepatomegaly: relative liver weight as percentage of body weight; conditions: 0.5% diet, 3 months
# Method: FIG. 11. AAV8-EAAT-CYP27A1 reverses hepatomegaly in CTX mice. The AAV8-EAAT-CYP27A1 vector was administered intravenously to 7 week-old CTX mice at the indicated doses. CDCA was mixed in mouse chow at 0.1 or 0.5%. Untreated CTX and WT littermates were included as a reference. Mice were maintained for 3 months and then they were sacrificed for determination of relative liver weight, represented as percentage of body weight. *p<0.05; ***p<0.001 versus untreated CTX mice. Kruskal-Wallis with Dunn's post-test.
# Activation of the xenobiotic response pathways produces hepatomegaly in CTX mice (Repa J J, et al. J. Biol. Chem. 2000; 275:39685-39692).
# CTX mice [4] = experiment: Bile acid profile in blood (HPLC-MS/MS)
# Method: as §1
# In order to determine if gene therapy is able to achieve sustained metabolic correction in CTX mice, the bile acid profile was analyzed in the blood of animals treated with AAV8-EAAT-CYP27A1 for 5 months at 1.5 or 15×10^12 vg/Kg. The optimal dose of CDCA (0.5% chow weight) was maintained for the same period and used for comparison. The inventors observed an increase of primary and secondary bile acids in mice treated with the vector at both doses (FIG. 12), including CDCA. […] This tendency was more evident in the high dose group and included other species such as tauromuricholic acids (TMCA) and taurohyodeoxycholic acid (THDCA). In sharp contrast, treatment with CDCA caused a drastic increase in this bile acid and its derivatives (1000-fold above normal levels), whereas CA and derived species were not restored.
# [5] = diet 0.1, 0.5 or 1% of chow weight, one month
compound,measurement,setting,value
"C[C@H](CCC(=O)O)[C@H]1CC[C@H]2[C@@H]3[C@H](O)C[C@@H]4C[C@H](O)CC[C@]4(C)[C@H]3CC[C@]12C [CDCA, chenodeoxycholic acid]",7αC4 in plasma,CTX mice [1]; [5],dose-dependent reduction
same,cholestanol in plasma,CTX mice [1]; [5],dose-dependent reduction
same,cholestanol levels in plasma,"CTX mice [1]; diet 0.5% or higher, one month",below WT mice; also recorded: very efficient
same,7αC4 in plasma,"CTX mice [1]; diet 0.5%, one month, male and female",full normalization; also recorded: not completely normalized
same,therapeutic dose in the CTX model,"CTX mice [1]; percent of chow weight, dose required for normalization of 7αC4",0.5%
same,body weight,CTX mice [2],weight loss
same,transcription of the endogenous Cyp27a1 gene,Cyp27a1,moderate inhibition
same,Cyp3a11 expression in liver,Cyp3a11,only a slight reduction
same,Cyp7a1 expression in liver,Cyp7a1,"drastic reduction of Cyp7a1 expression, below physiological levels; also recorded: virtually abrogated"
same,hepatomegaly (relative liver weight),CTX mice [3],only partially
same,CA and derived species in blood,"CTX mice [4]; 0.5% chow weight, 5 months",not restored
same,increase in CDCA and its derivatives in blood above normal levels,"CTX mice [4]; 0.5% chow weight, 5 months",1000 fold
same,CDCA in blood,CTX mice [4]; therapeutic dose (0.5%),marked accumulation

# — patent publication US20230265456A1, “GENE THERAPY VECTOR EXPRESSING CYP27A1 FOR THE TREATMENT OF CEREBROTENDINOUS XANTHOMATOSIS” (FUNDACION PARA LA INVESTIGACION MEDICA APLICADA, priority 2020, published 2023)
